This passage reports Kd results from ChEMBL document CHEMBL1150977, “A quantitative analysis of kinase inhibitor selectivity” (Nat Biotechnol, 2008).

Each structure is given as a SMILES string.

Experiment [1] concerns the target T1, Ephrin type-B receptor 1 (Homo sapiens, UniProt P54762).
T1 sequence (P54762 whole entry): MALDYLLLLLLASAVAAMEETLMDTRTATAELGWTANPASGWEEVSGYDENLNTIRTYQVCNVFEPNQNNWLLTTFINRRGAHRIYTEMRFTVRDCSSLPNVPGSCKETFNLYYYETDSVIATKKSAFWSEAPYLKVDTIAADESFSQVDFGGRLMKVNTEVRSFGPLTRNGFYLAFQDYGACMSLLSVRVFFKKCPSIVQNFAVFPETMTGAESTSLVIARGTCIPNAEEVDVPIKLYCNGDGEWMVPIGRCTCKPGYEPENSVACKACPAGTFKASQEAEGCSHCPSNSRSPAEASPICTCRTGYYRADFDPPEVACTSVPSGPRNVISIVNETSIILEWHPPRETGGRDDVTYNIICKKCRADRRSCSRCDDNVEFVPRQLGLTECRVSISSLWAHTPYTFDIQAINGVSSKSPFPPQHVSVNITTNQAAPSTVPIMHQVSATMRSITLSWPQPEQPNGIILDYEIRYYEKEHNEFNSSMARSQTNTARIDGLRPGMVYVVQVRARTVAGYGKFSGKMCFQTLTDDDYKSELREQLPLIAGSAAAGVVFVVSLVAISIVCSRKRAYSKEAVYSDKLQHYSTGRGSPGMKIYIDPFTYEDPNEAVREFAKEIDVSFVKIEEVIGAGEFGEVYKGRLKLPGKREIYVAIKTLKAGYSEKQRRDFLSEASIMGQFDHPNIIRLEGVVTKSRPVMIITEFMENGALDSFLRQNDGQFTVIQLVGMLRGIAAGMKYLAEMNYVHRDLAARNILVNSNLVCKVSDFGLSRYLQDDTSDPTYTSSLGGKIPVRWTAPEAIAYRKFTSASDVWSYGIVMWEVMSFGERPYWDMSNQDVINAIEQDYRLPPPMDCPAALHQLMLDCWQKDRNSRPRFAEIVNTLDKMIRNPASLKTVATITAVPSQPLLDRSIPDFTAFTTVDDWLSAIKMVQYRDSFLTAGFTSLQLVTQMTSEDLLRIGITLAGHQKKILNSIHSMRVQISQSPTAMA

Experiment [2] concerns the target Ribosomal protein S6 kinase alpha-5 (Homo sapiens, UniProt O75582).
The target in experiment [3] is Serine/threonine-protein kinase N2 (Homo sapiens, UniProt Q16513).
For experiment [4], the target named is T2, 3-phosphoinositide-dependent protein kinase 1 (Homo sapiens, UniProt O15530).
T2 sequence (O15530 whole entry): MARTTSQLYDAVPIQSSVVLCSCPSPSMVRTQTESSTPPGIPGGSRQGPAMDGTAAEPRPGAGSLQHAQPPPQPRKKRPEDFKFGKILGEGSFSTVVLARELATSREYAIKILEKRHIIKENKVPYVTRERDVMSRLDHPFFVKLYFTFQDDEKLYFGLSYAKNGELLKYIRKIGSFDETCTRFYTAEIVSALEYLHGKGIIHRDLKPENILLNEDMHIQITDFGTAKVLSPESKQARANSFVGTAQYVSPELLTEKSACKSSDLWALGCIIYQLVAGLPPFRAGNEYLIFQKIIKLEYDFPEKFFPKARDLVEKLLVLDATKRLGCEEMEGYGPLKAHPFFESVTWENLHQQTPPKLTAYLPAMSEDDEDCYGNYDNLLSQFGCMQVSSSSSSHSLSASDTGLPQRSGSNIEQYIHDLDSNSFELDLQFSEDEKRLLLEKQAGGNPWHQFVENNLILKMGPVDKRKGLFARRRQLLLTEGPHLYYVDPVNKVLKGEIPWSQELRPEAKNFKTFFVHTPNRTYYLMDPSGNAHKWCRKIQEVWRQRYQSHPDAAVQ

Experiment [5] has as its target Mitogen-activated protein kinase 6 (Homo sapiens, UniProt Q16659).
In experiment [6] the target is Serine/threonine-protein kinase 26 (Homo sapiens, UniProt Q9P289).
Experiment [7] deals with Leukocyte tyrosine kinase receptor (Homo sapiens, UniProt P29376).
Experiment [8] has as its target Serine/threonine-protein kinase 32C (Homo sapiens, UniProt Q86UX6).
The target of experiment [9] is T3, Serine/threonine-protein kinase D3 (Homo sapiens, UniProt O94806).
T3 sequence (O94806 whole entry): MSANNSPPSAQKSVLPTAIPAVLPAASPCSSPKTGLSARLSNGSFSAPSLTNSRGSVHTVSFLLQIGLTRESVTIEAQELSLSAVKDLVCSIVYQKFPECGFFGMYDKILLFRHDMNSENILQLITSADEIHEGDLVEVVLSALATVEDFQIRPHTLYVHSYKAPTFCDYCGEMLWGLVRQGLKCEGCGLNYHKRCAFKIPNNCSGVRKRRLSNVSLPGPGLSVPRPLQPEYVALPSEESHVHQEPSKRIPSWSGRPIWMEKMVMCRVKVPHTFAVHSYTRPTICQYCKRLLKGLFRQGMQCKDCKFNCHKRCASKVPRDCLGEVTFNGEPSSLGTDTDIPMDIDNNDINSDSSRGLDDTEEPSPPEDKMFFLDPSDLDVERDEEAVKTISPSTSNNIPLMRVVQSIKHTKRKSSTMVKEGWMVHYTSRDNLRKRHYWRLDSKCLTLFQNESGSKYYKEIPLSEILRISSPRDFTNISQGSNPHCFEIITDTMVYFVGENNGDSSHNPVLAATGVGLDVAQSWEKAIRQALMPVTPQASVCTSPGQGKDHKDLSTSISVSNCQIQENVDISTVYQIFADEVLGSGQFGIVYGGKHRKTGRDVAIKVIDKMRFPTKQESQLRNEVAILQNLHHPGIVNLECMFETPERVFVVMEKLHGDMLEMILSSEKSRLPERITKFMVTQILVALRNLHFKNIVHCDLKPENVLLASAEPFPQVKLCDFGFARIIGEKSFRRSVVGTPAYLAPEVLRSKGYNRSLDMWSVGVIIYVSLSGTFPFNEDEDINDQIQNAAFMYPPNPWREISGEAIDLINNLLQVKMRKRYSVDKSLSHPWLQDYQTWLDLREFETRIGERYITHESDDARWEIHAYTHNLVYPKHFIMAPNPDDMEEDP

For experiment [10], the target named is Fibroblast growth factor receptor 2 (Homo sapiens, UniProt P21802).
Experiment [11] concerns the target Serine/threonine-protein kinase B-raf (Homo sapiens, UniProt P15056, V600E).

Serine/threonine-protein kinase 32C, sequence (Q86UX6 whole entry): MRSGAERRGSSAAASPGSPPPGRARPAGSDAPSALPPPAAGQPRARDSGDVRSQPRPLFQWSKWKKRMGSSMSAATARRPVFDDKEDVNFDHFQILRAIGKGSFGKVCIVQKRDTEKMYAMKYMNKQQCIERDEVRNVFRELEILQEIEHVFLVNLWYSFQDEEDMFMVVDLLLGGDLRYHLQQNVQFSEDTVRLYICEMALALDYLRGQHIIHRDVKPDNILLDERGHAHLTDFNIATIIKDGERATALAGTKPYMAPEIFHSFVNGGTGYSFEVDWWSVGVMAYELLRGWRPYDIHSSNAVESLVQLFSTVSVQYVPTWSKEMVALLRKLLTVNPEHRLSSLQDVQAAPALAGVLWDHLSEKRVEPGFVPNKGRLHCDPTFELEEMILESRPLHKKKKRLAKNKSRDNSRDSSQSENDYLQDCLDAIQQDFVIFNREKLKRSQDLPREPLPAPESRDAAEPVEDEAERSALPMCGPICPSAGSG
Ribosomal protein S6 kinase alpha-5, sequence (O75582 whole entry): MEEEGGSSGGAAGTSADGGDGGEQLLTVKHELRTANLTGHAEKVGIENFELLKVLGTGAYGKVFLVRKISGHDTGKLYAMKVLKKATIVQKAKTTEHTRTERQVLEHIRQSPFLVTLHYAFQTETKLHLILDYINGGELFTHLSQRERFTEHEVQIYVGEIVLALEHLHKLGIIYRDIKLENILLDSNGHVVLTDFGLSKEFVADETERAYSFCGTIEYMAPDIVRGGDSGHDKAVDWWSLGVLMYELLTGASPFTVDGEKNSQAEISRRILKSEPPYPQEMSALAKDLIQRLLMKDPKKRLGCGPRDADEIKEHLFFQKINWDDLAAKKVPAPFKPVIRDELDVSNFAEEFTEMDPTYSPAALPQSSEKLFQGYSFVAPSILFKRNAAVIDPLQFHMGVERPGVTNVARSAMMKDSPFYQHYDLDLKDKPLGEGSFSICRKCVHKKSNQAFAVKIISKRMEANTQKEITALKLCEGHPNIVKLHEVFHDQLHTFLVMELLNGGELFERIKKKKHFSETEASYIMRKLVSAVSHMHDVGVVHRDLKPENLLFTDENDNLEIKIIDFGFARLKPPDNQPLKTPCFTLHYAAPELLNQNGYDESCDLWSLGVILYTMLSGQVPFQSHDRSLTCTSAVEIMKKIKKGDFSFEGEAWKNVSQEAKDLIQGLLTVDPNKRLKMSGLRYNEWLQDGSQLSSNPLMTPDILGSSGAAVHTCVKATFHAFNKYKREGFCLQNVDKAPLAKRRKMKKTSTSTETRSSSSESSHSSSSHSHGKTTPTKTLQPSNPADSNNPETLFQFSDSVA
Serine/threonine-protein kinase 26, sequence (Q9P289 whole entry): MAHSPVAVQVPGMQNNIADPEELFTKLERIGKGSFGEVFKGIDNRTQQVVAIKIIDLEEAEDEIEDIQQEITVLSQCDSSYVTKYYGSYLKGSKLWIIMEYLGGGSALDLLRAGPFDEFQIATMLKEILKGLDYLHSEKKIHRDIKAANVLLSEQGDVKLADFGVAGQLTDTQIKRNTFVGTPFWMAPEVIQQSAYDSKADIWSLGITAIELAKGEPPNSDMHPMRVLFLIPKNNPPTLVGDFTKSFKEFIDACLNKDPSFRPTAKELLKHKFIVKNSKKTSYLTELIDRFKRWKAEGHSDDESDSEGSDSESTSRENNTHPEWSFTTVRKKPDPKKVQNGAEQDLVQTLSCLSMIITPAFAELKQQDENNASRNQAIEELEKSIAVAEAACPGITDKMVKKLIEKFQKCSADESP
Serine/threonine-protein kinase B-raf, sequence (P15056 2-766 V600E limits assumed): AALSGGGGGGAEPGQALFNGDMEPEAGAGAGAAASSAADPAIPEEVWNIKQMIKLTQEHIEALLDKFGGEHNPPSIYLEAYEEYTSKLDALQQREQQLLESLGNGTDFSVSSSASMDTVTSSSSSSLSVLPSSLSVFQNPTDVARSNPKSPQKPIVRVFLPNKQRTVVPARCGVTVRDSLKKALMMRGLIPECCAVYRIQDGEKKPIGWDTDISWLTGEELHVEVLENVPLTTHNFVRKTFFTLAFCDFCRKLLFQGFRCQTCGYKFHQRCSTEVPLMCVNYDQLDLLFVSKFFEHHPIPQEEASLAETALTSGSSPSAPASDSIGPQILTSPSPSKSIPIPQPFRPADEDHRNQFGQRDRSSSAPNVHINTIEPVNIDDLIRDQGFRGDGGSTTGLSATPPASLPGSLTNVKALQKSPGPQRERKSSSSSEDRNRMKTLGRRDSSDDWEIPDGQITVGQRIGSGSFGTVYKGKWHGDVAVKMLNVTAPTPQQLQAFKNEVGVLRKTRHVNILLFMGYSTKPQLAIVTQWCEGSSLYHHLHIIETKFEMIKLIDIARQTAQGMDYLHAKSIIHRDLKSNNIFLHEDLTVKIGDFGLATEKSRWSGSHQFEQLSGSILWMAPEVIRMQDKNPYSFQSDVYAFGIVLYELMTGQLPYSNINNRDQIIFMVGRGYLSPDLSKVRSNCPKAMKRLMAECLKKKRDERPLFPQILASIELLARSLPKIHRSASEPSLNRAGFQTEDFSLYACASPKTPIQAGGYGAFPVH
Serine/threonine-protein kinase N2, sequence (Q16513 whole entry): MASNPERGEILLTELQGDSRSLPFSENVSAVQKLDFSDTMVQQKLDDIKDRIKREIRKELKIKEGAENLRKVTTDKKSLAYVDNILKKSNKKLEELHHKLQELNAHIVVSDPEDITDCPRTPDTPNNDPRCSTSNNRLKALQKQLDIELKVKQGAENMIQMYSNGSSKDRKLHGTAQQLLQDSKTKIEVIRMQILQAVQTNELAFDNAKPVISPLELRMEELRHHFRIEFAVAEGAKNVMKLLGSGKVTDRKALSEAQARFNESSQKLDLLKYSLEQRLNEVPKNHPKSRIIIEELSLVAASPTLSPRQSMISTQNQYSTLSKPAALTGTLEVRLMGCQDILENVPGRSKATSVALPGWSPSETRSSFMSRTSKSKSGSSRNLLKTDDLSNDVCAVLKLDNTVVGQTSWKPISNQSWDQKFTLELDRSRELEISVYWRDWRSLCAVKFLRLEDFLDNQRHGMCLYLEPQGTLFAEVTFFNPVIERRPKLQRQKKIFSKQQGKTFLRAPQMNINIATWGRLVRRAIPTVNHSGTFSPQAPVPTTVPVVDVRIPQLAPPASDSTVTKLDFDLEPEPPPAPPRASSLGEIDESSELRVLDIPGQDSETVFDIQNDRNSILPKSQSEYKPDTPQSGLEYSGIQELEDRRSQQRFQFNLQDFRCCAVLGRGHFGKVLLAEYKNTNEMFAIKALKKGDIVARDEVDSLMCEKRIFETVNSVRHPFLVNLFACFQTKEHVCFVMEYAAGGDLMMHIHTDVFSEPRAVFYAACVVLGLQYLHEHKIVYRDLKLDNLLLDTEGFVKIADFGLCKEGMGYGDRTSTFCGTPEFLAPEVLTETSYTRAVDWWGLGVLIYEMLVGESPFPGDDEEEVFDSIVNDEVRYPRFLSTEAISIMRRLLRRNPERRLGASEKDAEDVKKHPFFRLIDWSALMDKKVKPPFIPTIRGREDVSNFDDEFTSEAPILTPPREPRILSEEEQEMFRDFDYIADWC
Fibroblast growth factor receptor 2, sequence (P21802 whole entry): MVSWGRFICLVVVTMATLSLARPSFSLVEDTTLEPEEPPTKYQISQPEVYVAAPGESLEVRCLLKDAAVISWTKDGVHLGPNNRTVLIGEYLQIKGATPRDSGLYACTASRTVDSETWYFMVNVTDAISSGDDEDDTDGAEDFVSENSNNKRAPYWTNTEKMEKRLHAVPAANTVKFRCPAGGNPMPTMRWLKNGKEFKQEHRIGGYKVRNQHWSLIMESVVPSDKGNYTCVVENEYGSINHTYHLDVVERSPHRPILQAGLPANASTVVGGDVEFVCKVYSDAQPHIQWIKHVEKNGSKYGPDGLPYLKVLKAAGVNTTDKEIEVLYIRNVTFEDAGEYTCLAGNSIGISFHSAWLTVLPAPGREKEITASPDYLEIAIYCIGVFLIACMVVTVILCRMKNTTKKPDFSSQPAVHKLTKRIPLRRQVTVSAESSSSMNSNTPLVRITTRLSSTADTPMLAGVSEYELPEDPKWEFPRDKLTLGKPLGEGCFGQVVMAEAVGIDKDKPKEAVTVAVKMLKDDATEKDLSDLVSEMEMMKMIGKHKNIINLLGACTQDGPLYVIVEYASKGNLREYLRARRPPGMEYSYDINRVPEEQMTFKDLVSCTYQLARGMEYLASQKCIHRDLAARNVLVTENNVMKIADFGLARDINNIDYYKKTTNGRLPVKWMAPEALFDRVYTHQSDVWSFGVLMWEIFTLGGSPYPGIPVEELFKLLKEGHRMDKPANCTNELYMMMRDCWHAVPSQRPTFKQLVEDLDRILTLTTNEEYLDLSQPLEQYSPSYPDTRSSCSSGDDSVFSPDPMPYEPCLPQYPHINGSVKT
Mitogen-activated protein kinase 6, sequence (Q16659 whole entry): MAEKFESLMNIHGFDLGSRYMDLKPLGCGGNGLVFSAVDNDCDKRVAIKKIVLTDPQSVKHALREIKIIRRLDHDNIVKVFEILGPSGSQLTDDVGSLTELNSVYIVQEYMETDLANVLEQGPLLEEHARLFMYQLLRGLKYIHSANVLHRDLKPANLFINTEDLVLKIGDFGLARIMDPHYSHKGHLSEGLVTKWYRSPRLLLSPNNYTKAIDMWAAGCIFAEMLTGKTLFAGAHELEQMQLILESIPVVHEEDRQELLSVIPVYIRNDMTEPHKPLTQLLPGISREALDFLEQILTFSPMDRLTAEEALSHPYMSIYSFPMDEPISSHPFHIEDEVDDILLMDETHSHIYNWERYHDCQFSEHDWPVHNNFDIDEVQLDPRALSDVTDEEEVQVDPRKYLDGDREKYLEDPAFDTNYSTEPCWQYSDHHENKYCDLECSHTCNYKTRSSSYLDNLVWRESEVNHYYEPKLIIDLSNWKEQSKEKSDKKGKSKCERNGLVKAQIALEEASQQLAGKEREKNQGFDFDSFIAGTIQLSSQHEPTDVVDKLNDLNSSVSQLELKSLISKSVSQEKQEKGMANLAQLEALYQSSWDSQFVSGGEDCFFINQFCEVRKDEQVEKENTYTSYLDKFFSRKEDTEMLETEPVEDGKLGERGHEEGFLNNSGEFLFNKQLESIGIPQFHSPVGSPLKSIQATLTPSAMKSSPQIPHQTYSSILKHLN

As for `COCC(=O)NC/C=C/c1ccc2ncnc(Nc3ccc(Oc4ccc(C)nc4)c(C)c3)c2c1` [CP-724714], the Kd in [1], in experiment [2], in experiment [3], in experiment [4], in experiment [5] and in experiment [6] was greater than 10 µM each time. Besides, the Kd in experiment [7], in experiment [8], in experiment [9] and in [10] was greater than 10 µM throughout.

`Nc1nc(Nc2ccc(S(N)(=O)=O)cc2)nn1C(=O)c1c(F)cccc1F` [JNJ-7706621]: the equilibrium dissociation constant (Kd) is greater than 10 µM in experiment [1]; greater than 10 µM in experiment [2]; 3.1 µM in experiment [4]; greater than 10 µM in experiment [7]; greater than 10 µM in [11]; greater than 10 µM in experiment [8].

With `CCOc1cc2ncc(C#N)c(Nc3ccc(F)c(Cl)c3)c2cc1NC(=O)/C=C/CN(C)C` [PELITINIB], the Kd in experiment [2], in experiment [3], in [4], in [5], in experiment [6] and in experiment [7] was greater than 10 µM in each case. Further, the Kd in experiment [11], in experiment [8], in [9] and in experiment [10] was greater than 10 µM throughout.

Turning to `Oc1ccc(-c2nc(-c3ccncc3)c(-c3ccc(F)cc3)[nH]2)cc1` [SB-202190], the dissociation constant Kd in [1], in [2], in experiment [3], in experiment [4], in experiment [5] and in [6] was greater than 10 µM each time. Moreover, the dissociation constant Kd in experiment [7] is greater than 10 µM; in [11], 0.62 µM; in experiment [8] it was greater than 10 µM; in experiment [9], greater than 10 µM; in [10], greater than 10 µM.

Consider `NC(=O)c1ccc(-c2nc(-c3ccc4c(c3)OCO4)c(-c3ccccn3)[nH]2)cc1` [SB-431542], for which the Kd in [1], in experiment [2], in [3], in [4], in experiment [5] and in experiment [6] was greater than 10 µM in each case. Besides, the Kd in [7], in experiment [8] and in experiment [10] was greater than 10 µM throughout.
